Reference: patent US11530244B2, “Cyclic polypeptides for PCSK9 inhibition” (priority 2018, dated 2022)
Starred links: 1 amine or outer side, 2 acyl side, 3 side chain; linkers in the order of their positions; H or OH if unused. Positions of bridges follow the written chain, without caps; N, C: chain ends. Non-standard residues stand in square brackets, D forms with d. Residues, ends and D or L forms follow the SMILES beside them. Phe(3-CH2NH2) = O=C([C@H](Cc1cccc(CN[*:3])c1)N[*:1])[*:2]; NHCH2(1,3-C6H4)CH2CO = O=C(Cc1cccc(CN[*:1])c1)[*:2]; Phe(4-COOH) = N[C@@H](Cc1ccc(C(=O)O)cc1)C(=O)O; Trp(5-F) = N[C@@H](Cc1c[nH]c2ccc(F)cc12)C(=O)O; Trp(6-F) = N[C@@H](Cc1c[nH]c2cc(F)ccc12)C(=O)O; X11 = COc1ccc(C[C@H](N[*:1])C(=O)[*:2])cc1C; X17 = O=C(CCSCc1ccc(CSCCN[*:1])cc1)[*:2]; Pro(4S-NH2) = N[C@@H]1CN[C@H](C(=O)O)C1; X4 = O=C(CCSCc1cccc(CSCCN[*:1])c1)[*:2]; mXylylene = c1cc(C[*:1])cc(C[*:2])c1; d(aThr) = C[C@@H](O)[C@@H](N)C(=O)O; X7 = O=C(Cc1ccc(CN[*:1])cc1)[*:2]; hPhe = N[C@@H](CCc1ccccc1)C(=O)O; Aad = N[C@@H](CCCC(=O)O)C(=O)O; αMeP = C[C@@]1(C(=O)O)CCCN1; Mpa = O=C(O)CCS

Columns and labels:
PCSK9 = PCSK9 (Homo sapiens (Human), UniProt Q8NBP7); test: PCSK9 Alexa FRET Standard assay (displacement of AlexaFluor647 tagged cyclic peptide Reagent A); assay type: binding; details: PCSK9 Alexa FRET Standard assay, 0.5 nM PCSK9, 20 nM AF cyclic peptide Reagent A; read-out: IC50
Sequence of PCSK9 (Q8NBP7 153-692): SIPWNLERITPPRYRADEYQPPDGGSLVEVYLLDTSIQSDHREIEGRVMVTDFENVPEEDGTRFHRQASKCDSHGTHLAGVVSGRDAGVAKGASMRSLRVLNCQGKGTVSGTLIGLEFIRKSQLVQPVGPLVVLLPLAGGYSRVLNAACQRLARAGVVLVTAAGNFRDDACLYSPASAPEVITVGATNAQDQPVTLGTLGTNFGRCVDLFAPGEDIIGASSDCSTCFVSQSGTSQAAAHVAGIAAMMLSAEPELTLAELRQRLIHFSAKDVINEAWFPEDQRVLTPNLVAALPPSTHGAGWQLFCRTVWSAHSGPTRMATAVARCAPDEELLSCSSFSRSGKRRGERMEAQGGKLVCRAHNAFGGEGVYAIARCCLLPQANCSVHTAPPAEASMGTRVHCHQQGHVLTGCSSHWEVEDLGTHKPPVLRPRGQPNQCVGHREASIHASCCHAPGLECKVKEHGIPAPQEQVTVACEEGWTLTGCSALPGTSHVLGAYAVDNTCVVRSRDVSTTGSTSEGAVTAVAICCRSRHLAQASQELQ
How it was run: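 TR-FRET displacement: 0.5 nM biotinylated PCSK9 with 1.25 nM Strep-Eu and 20 nM AlexaFluor-tagged cyclic peptide (final) in 50 mM HEPES pH 7.4, 0.15 M NaCl, 5 mM CaCl2, 0.01% BSA, 0.01% P20, ≥2 h at room temperature. IC50 from sigmoidal fit, converted to Ki via peptide KD; falling Eu counts flagged false positives.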

[1] = biological target: human PCSK9 / human LDLR EGFa domain interaction (Homo sapiens (Human), UniProt Q8NBP7); test: TR-FRET assay of inhibition of the PCSK9-LDLR protein-protein interaction; assay type: binding; details: TR-FRET, 20 nM human PCSK9, 20 nM human LDLR EGFa domain, 2 hours room temperature; read-out: IC50
Sequence of human PCSK9 / human LDLR EGFa domain interaction (Q8NBP7 153-692): as above
Sequence of human PCSK9 / human LDLR EGFa domain interaction (Q8NBP7 31-152 partner): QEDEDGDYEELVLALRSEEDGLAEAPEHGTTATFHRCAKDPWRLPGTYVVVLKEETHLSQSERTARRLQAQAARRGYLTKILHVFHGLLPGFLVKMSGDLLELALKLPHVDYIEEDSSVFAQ
How it was run: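 Avitag-biotinylated human PCSK9 (20 nM) and his-tagged human LDLR EGFa domain (20 nM) were incubated with 5 nM Ulight streptavidin and 5 nM europium anti-6×His for 2 h at room temperature. Buffer: 50 mM HEPES, 150 mM NaCl, 5 mM CaCl2, 0.01% BSA, 0.01% P20. IC50 from 4-parameter fit of dose-response.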

`COc1ccc(C[C@@H]2NC(=O)[C@H](CCCC(=O)O)NC(=O)[C@@H]3C[C@H](N)CN3C(=O)[C@H](Cc3c[nH]c4ccc(F)cc34)NC(=O)[C@H](Cc3c[nH]c4ccc(F)cc34)NC(=O)[C@@H](C)NC(=O)[C@H](C)NC(=O)CCSCc3ccc(cc3)CSCCNC(=O)[C@]3(C)CCCN3C2=O)cc1` [Compound 345] (cyclo(A[dA][Trp(5-F)][Trp(5-F)][Pro(4S-NH2)][Aad]Y(Me)[αMeP][X17])) was tested, and the IC50 (PCSK9) was 21 to 50 µM and the IC50 [1] was 21 to 50 µM.
In the case of `COc1ccc(C[C@@H]2NC(=O)[C@@H]3CCCCCCCO[C@H]4C[C@@H](C(=O)N3)N(C4)C(=O)[C@H](Cc3c[nH]c4ccc(F)cc34)NC(=O)[C@H](Cc3c[nH]c4ccc(F)cc34)NC(=O)[C@@H](C)NC(=O)[C@H](CCCCN)NC(=O)CCSCc3cccc(c3)CSC[C@@H](C(N)=O)NC(=O)[C@]3(C)CCCN3C2=O)cc1` [Compound 511], the IC50 (PCSK9) is reported as 0.00011 to 0.1 µM and the IC50 [1] is reported as 0.1 to 1 µM.
With `COc1ccc(C[C@@H]2NC(=O)[C@H](Cc3cnc[nH]3)NC(=O)[C@H](CC(=O)O)NC(=O)[C@H](Cc3c[nH]c4ccc(F)cc34)NC(=O)[C@H](Cc3c[nH]c4ccc(F)cc34)NC(=O)[C@@H](C)NC(=O)Cc3ccc(cc3)CNC(=O)c3ccc(cc3)C[C@@H](C(N)=O)NC(=O)[C@]3(C)CCCN3C2=O)cc1` [Compound 391] ([X7][dA][Trp(5-F)][Trp(5-F)]DHY(Me)[αMeP][Phe(4-COOH)]-NH2; lactam N-9) the IC50 (PCSK9) was 0.1 to 1 µM and the IC50 [1] was 0.0001 to 0.1 µM.
Molecule `COc1ccc(C[C@@H]2NC(=O)[C@@H]([C@@H](C)O)NC(=O)[C@H](CCCC(=O)O)NC(=O)[C@H](Cc3c[nH]c4ccc(F)cc34)NC(=O)[C@H](Cc3cccc(CN)c3)NC(=O)[C@@H](C)NC(=O)[C@H](C)NC(=O)CCSCc3cccc(c3)CSCCNC(=O)[C@]3(C)CCCN3C2=O)cc1` [Compound 346] (cyclo(A[dA][Phe(3-CH2NH2)][Trp(5-F)][Aad][d(aThr)]Y(Me)[αMeP][X4])) has an IC50 (PCSK9) of 1 to 12.1 µM and an IC50 [1] of 0.0001 to 0.1 µM.
`COc1ccc(C[C@@H]2NC(=O)[C@@H]3CCC/C=C\CO[C@H]4C[C@@H](C(=O)N3)N(C4)C(=O)[C@H](Cc3c[nH]c4ccc(F)cc34)NC(=O)[C@H](Cc3c[nH]c4ccc(F)cc34)NC(=O)[C@@H](C)NC(=O)CCCCCC(=O)NCc3ccc(cc3)C[C@@H](C(N)=O)NC(=O)[C@]3(C)CCCN3C2=O)cc1` [Compound 512] was tested, and the IC50 (PCSK9) was 0.00011 to 0.1 µM and the IC50 [1] was 0.0001 to 0.1 µM.
`CC(C)C[C@H]1NC(=O)[C@H](CCCCN)NC(=O)CCSCc2cccc(c2)CSC[C@@H](C(N)=O)NC(=O)[C@]2(C)CCCN2C(=O)[C@H](Cc2ccc(O)cc2)NC(=O)[C@H](Cc2cnc[nH]2)NC(=O)[C@H](CC(=O)O)NC(=O)[C@H](Cc2c[nH]c3ccc(F)cc23)NC(=O)[C@H](Cc2c[nH]c3ccc(F)cc23)NC1=O` [Compound 373] ([Mpa]K[dL][Trp(5-F)][Trp(5-F)]DHY[αMeP]C-NH2; linker 1-10 via mXylylene) was tested, and the IC50 (PCSK9) was 0.1 to 1 µM and the IC50 [1] was 0.0001 to 0.1 µM.
`COc1ccc(C[C@@H]2NC(=O)[C@H](Cc3c[nH]cn3)NC(=O)[C@H](CC(=O)O)NC(=O)[C@H](Cc3c[nH]c4ccc(F)cc34)NC(=O)[C@H](Cc3c[nH]c4ccc(F)cc34)NC(=O)[C@@H](C)NC(=O)[C@H](CCCCN)NC(=O)CCSCc3cccc(c3)CSCCNC(=O)[C@]3(C)CCCN3C2=O)cc1C` [Compound 387] (cyclo(DH[X11][αMeP][X4]K[dA][Trp(5-F)][Trp(5-F)])) showed an IC50 (PCSK9) of 0.1 to 1 µM and an IC50 [1] of 0.0001 to 0.1 µM.
`NCCCC[C@@H]1NC(=O)CCSCc2cccc(c2)CSC[C@@H](C(N)=O)NC(=O)[C@@H]2CCCN2C(=O)[C@H](Cc2ccc(O)cc2)NC(=O)[C@H](Cc2c[nH]cn2)NC(=O)[C@H](CC(=O)O)NC(=O)[C@H](CCc2ccccc2)NC(=O)[C@H](Cc2c[nH]c3ccc(F)cc23)NC(=O)CNC1=O` [Compound 244] ([Mpa]KG[Trp(5-F)][hPhe]DHYPC-NH2; linker 1-10 via mXylylene) showed an IC50 (PCSK9) of 0.1 to 1 µM and an IC50 [1] of 0.1 to 1 µM.
`COc1ccc(C[C@@H]2NC(=O)[C@H](Cc3cnc[nH]3)NC(=O)[C@H](CC(=O)O)NC(=O)[C@H](Cc3c[nH]c4ccc(F)cc34)NC(=O)[C@H](Cc3c[nH]c4ccc(F)cc34)NC(=O)[C@@H](C)NC(=O)Cc3cccc(c3)CNC(=O)c3ccc(cc3)C[C@@H](C(N)=O)NC(=O)[C@]3(C)CCCN3C2=O)cc1` [Compound 390] ([NHCH2(1,3-C6H4)CH2CO][dA][Trp(5-F)][Trp(5-F)]DHY(Me)[αMeP][Phe(4-COOH)]-NH2; lactam N-9) showed an IC50 (PCSK9) of 0.1 to 1 µM and an IC50 [1] of 0.0001 to 0.1 µM.
With `CC(=O)N[C@H]1CCCCNC(=O)c2ccc(cc2)C[C@@H](C(N)=O)NC(=O)[C@]2(C)CCCN2C(=O)[C@H](Cc2ccc(O)cc2)NC(=O)[C@H](Cc2cnc[nH]2)NC(=O)[C@H](CC(=O)O)NC(=O)[C@H](Cc2c[nH]c3cc(F)ccc23)NC(=O)[C@H](Cc2c[nH]c3ccc(F)cc23)NC(=O)CNC(=O)[C@H](C)NC1=O` [Compound 312] (Ac-KAG[Trp(5-F)][Trp(6-F)]DHY[αMeP][Phe(4-COOH)]-NH2; lactam 1-10) the IC50 (PCSK9) was 1 to 12.1 µM and the IC50 [1] was 0.1 to 1 µM.
